Measurements taken from article PMC7018514 (eLife, 2020).

Columns and labels:
[1] = target: T1, human IMPDH2 (Homo sapiens, UniProt P12268); assay: cryo-EM structure ([…] Å filament assembly interface); NAD+ saturation kinetics; type: binding
T1 construct: full-length hIMPDH2 (SUMO tag removed)

[2] = target: T2, human IMPDH2 (Homo sapiens, UniProt P12268, Y12A); assay: NADH absorbance ([…] nm) activity assay with GTP dose-response; […] inhibited at […] GTP; type: biochemical
T2 construct: full-length hIMPDH2, non-assembling mutant
T2 sequence (P12268 2-514 Y12A): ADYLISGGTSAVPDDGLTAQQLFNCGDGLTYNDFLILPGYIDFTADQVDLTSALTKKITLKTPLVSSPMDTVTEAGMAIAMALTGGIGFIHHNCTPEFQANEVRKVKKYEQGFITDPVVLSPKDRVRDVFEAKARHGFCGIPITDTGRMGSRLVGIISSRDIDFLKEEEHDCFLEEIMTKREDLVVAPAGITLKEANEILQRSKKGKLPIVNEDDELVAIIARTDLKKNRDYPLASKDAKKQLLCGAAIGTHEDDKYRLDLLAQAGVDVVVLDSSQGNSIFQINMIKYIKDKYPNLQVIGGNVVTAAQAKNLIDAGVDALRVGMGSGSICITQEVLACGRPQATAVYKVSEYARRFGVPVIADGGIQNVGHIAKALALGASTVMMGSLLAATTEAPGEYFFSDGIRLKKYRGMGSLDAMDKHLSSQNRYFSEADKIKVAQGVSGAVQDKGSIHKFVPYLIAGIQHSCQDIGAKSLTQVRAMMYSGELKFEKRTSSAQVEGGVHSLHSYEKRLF

[3] = target: T1, human IMPDH2; assay: cryo-EM structures ([…] Å fully compressed filament segment; […] Å free octamer), plus GTP inhibition kinetics of purified enzyme; type: biochemical

T1 sequence (P12268 2-514): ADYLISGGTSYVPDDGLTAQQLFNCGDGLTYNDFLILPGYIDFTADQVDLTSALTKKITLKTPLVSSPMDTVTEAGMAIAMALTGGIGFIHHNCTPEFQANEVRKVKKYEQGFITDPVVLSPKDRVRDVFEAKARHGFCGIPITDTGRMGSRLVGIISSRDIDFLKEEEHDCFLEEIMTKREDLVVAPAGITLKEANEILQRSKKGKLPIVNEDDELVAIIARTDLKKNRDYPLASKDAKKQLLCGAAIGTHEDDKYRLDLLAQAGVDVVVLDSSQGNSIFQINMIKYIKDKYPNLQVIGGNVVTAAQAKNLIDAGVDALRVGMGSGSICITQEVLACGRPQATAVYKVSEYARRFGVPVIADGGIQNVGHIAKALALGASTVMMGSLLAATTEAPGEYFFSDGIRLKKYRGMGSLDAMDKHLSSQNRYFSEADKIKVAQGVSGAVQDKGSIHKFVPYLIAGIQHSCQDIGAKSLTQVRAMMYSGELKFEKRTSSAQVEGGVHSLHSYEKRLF

Structure (SMILES) | cryo-EM structure (3.0 Å filament assembly interface); NAD+ saturation kinetics [1] | IC50 [2] | IC50 [3]
NC(=O)c1ccc[n+]([C@@H]2O[C@H](COP(=O)([O-])OP(=O)(O)OC[C@H]3O[C@@H](n4cnc5c(N)ncnc54)[C@H](O)[C@@H]3O)[C@@H](O)[C@H]2O)c1 [NAD+] | There is strong density in the both the IMP and NAD^+ binding sites. | – | –
Nc1nc2c(ncn2[C@@H]2O[C@H](COP(=O)(O)OP(=O)(O)OP(=O)(O)O)[C@@H](O)[C@H]2O)c(=O)[nH]1 [GTP] | – | < 2000 µM | > 2000 µM
